Results on two sequences are retold here after patent publication EP4700040A1, “PEPTIDE AND LUMINESCENT COMPLEX CONTAINING SAME” (Shenzhen Loggene Life Science & Technology Co., Ltd., priority 2023, dated 2024).

Type in all cases: biochemical, human
The test system of assay [1] is PCT. Put plainly: Signal-to-noise ratio and linear range for PCT detection, purified fusion proteins (Example 3). Also on record: key to luminescence value: luminescence normalized against the background value. The conditions noted are these: for Signal-to-noise ratio at 1000 pg/ml: large subunit 100 nM, small subunit fusion 180 nM, CTZ-h 25 µM, 140 s. The method, then: Test Methods: • (1) MBP-PCT protein was diluted with PBSAD in 10-fold gradient starting from 100 ng/ml, with 8 gradients in total, and 10 µl was added per well; • (2) The large subunit-SCFV5 fusion protein was diluted with PBSA to 100 nM, and 10 µl was added per well; • (3) Different rSCFV18-small subunit mutant fusion proteins were diluted with PBSA to 180 nM, and 10 µl of each was added per well; • (4) The plate was mixed slightly and incubated at 37°C for 10 min; and • (5) 50 µl of Obuffer 6.37-3 containing 25 µM of CTZ-h was added, and after 140 s, the luminescence value was detected. The results are shown after normalization against the background value.

Assay [2] concerns PCT. Put plainly: Complementation of purified rSCFV18-small subunit mutant fusion protein with large subunit-rSCFV5 fusion protein, PCT gradient (Example 2). The conditions noted are these: for luminescence value: CTZ-h 25 µM, 20 s; for Signal-to-noise ratio at 1000 pg/ml: PCT 1000 pg/ml versus 0. How it is done: Protein expression and purification of small subunit mutants: The strains containing plasmids of different small subunits inTable 2, prepared in Example 1, were inoculated into 200ml of 2YTA medium and cultured at 37°C with shaking at 250 rpm for about 3h. When the OD600 reached 1.0, IPTG was added to a final concentration of 1mM, and the culture was further incubated at 30°C with shaking at 250rpm for 20h. The culture were centrifuged at 5,000g for 10min, and the precipitate was resuspended with 10ml of PBS, added with polymyxin B to 20,000u/ml. The suspension was inverted and mixed at room temperature for 1h, and centrifuged at 10,000g to collect the supernatant. The rSCFV18-small subunit mutant fusion protein was purified according to the standard procedure for his-tag protein purification using Ni-NTA resin.
In the same tube, the large subunit-rSCFV5 fusion protein was diluted with PBSA to 50 nM; rSCFV18-small subunit mutant fusion protein was diluted to 90 nM, mixed well, and then 22 µl was added per well; the MBP-PCT fusion protein was diluted in 3-fold gradient with PBSAD (in pg/ml), with 8 gradients in total, 10µl was added per well, and the background control was PBSAD and 10 µl was added per well; the plate was mixed with slight shaking and incubated at 37°C for 6 min, 50 µl of Obuffer 6.37-3 containing 25 µM of CTZ-h then was added, and after 20 s, the luminescence value was detected.

For assay [3], the system named is PCT. Put plainly: Signal-to-noise ratio and linear range for PCT detection, purified fusion proteins (Example 3). Also on record: key: luminescence normalized against the background value. The conditions noted are these: PCT 3.3 (pg/ml); normalized against the background value.
Assay [4] has as its system PCT. Put plainly: Luciferase dual-antibody complementary activation assay for PCT detection, clone supernatants, retest with CTZ-h (Example 1). Conditions: for Signal-to-noise ratio: RLU antigen+/RLU antigen-, MBP-PCT 3.3 ng/ml, CTZ-h; for PCT+: luminescence signal value with MBP-PCT 3.3 ng/ml, large subunit-rSCFV5 50 nM, supernatant; for PCT+ / PCT-: retest CTZ-h 25 µM, read after 60 s; for PCT-: luminescence signal value, background control PBSAD without PCT.

The mark [5] stands for this setting: PCT 100 (pg/ml), normalized against the background value.
Where [6] appears, read: PCT 1000 (pg/ml), normalized against the background value.
Where [7] appears, read: PCT 10000 (pg/ml), normalized against the background value.
[8] abbreviates: PCT 100000 (pg/ml), normalized against the background value.
The mark [9] stands for this setting: PCT 0 pg/ml (background control PBSAD).
The mark [10] stands for this setting: PCT 1000 pg/ml, large subunit 50 nM, small subunit fusion 90 nM.

Take VEGYRLFDRKS [RB073]: the luminescence value is listed as 5000 with PCT [1] (PCT 0, background, normalized); 12151 with PCT [1] (setting [5]); 72352 in the assay on PCT [1] (setting [6]); 566678 with PCT [1] (setting [7]); 1966617 with PCT [1] (setting [8]); 412 in the assay with PCT [2] (setting [9]). Besides, the luminescence value in the assay on PCT [2] (PCT 1.37 pg/ml) came to 358; in the assay with PCT [2] (PCT 4.12 pg/ml) it was 475; in the assay on PCT [2] (PCT 12.35 pg/ml) it was 591; in the assay with PCT [2] (PCT 37.04 pg/ml), 1013; in the assay on PCT [2] (PCT 111.1 pg/ml), 2302; in the assay on PCT [2] (PCT 333.3 pg/ml), 5886. Further, the luminescence value in the assay with PCT [2] (setting [10]) turned out to be 16026; in the assay on PCT [3], 5283. Further, the “Signal-to-noise ratio at 1000 pg/ml” value in the assay on PCT [1] is 14.5; in the assay with PCT [2], 38.9. Further, the “signal-to-noise ratios in luciferase dual-antibody complementary activation for PCT detection” value with PCT [1] (statement in words on Table 3 and Figure 2) is given as “higher signal-to-noise ratios”. Further, the Signal-to-noise ratio in the assay with PCT [4] stood at 48. Further, the “PCT+” value in the assay with PCT [4] came to 46672. This sequence also came in with a PCT- with PCT [4] of 953.
Regarding VTGYRLFEEIL [P114, reference compound], the luminescence value in the assay on PCT [1] (PCT 0, background, normalized) is 5000; in the assay with PCT [1] (setting [5]) it was 7073; in the assay with PCT [1] (setting [6]), 18839; with PCT [1] (setting [7]), 129750; in the assay on PCT [1] (setting [8]) it was 642399; with PCT [2] (setting [9]), 333. Also, the luminescence value in the assay with PCT [2] (PCT 1.37 pg/ml) stood at 398; in the assay on PCT [2] (PCT 4.12 pg/ml), 383; in the assay with PCT [2] (PCT 12.35 pg/ml), 400; in the assay with PCT [2] (PCT 37.04 pg/ml), 435; in the assay on PCT [2] (PCT 111.1 pg/ml), 495; with PCT [2] (PCT 333.3 pg/ml) it was 656. The luminescence value with PCT [2] (setting [10]) was 1256; with PCT [3] it was 4789. The “Signal-to-noise ratio at 1000 pg/ml” value is 3.8 in the assay on PCT [1] and 1.44 in the assay on PCT [2]. Also, the Signal-to-noise ratio in the assay with PCT [4] is reported as 12.2. The “PCT+” value in the assay with PCT [4] was determined as 5058. The PCT- in the assay with PCT [4] is given as 414.
